Blank lines part the entries; values can stand above or below the compound they belong to.
Assays:
[1] = biological target: T1, RORγ receptor (B-RORγ LBD / Bioin-SRC1) (Homo sapiens, UniProt P51449); experiment: Determination of agonistic activities on RORγ receptors in vitro (dual FRET); assay type: biochemical; conditions: average of at least two independent experiments
T1 construct: 40 nM B-RORγ LBD solution
T1 sequence (P51449 269-508 limits assumed): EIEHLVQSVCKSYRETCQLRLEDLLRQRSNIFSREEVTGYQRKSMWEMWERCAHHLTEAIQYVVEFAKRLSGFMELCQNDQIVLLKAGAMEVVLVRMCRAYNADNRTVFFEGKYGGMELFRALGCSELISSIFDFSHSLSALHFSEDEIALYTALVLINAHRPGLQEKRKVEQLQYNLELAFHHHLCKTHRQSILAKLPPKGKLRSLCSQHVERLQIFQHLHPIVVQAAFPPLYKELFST
T1 sequence (Q15788 676-700 partner limits assumed): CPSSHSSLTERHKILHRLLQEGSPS
Protocol: Determination of Agonistic Activities of Compounds on RORγ Receptors In Vitro The agonistic activities of compounds described herein on RORγ receptor were determined by dual fluorescence resonance energy transfer (dual FRET) experiments. The agonistic activity was expressed by half maximum effect concentration (EC50).
1) Preparation of RORγ Assay Buffer
100 mL of buffer solution was well mixed with […] DTT for use.
2) Preparation of Solutions of Compounds
3) Preparation of protein mixtures a) 40 nM B-RORγ LBD solution was mixed well with 20 nM SA-APC solution and incubated for 15 minutes at room temperature. Then the resulting mixture was further mixed well with 400 nM Biotin and incubated for another 10 minutes at room temperature. […]
b) 40 nM Bioin-SRC1 solution was mixed well with 10 nM SA-eu solution and was incubated for 15 minutes at room temperature. Then the resulting mixture was further mixed well with 200 nM Biotin and was incubated for another 10 minutes at room temperature. […]
d) A mixture (25 μL) of B-RORγ LBD/SA-APC and Bioin-SRC1/SA-eu together with a test compound was added to one of the wells of a 384-well plate, and then the plate was centrifuged for one minute at 1000 rpm, and incubated at room temperature for one hour. The data were read on an Envision microplate detector and EC50 values were calculated.

[2] = tested on: Mouse spleen CD4+T cells differentiated into Th17 cells; experiment: Mouse Th17 cell differentiation, half-maximal effect concentration; assay type: cell-based; conditions: 96 hours, proportion of IL-17 by intracellular staining and flow cytometry
Protocol: Determination of the Half-Maximal Effect Concentration of Mouse Th17 Cell Differentiation
Experimental methods: Mouse spleen CD4^+T cells were separated and differentiated into Th17 cells. CD4^+T cells were cultured in the environment containing anti-CD3 (0.25 μg/mL), anti-CD28 (1 μg/mL), anti-IL4 (2 μg/mL), anti-IFN-γ (2 μg/mL), TGF-β (5 ng/mL), and IL6 (20 ng/mL), with a test compound added at the same time. After 96 hours, the differentiation efficiency of Th17 was analyzed. Before collection of cells, PMA at 50 ng/mL and ionomycin at 500 ng/mL were added for stimulation for 4 hours, and the proportion of IL-17 was detected by intracellular staining and flow cytometry. Meanwhile, we used Live/Dead Cell Dye (Invitrogen) staining method to analyze the cell survival rate and to judge whether the drug had toxicity to cells, and determined the half-maximal effect concentration EC50 of the compounds.

[3] = tested on: Mouse lymphoma EL4 cells transfected with RORγt plasmid; experiment: Determination of the activation rate on mouse lymphoma EL4 (IL-17 generation); assay type: cell-based; conditions: compound at 2 μM, 24 hours, PMA/ionomycin stimulation 4 hours, flow cytometry, read-out: +act % (activation of IL-17 generated by EL4 cells)
Protocol: Determination of the Activation Rate on Mouse Lymphoma EL4
Mouse lymphoma EL4 cells transfected with RORγt plasmid were cultured at 37° C. under an atmosphere with 5% CO2, with a test compound added simultaneously. After 24 hours, the generation efficiency of IL-17A was analyzed. Before collection of cells, PMA at 50 ng/mL and ionomycin at 500 ng/mL were added for stimulation for 4 hours. The proportion of IL-17 was detected by intracellular staining and flow cytometry. […] The activation rate of IL-17 generated by EL4 cells for the compound was measured at a concentration of 2 μM.

SMILES: CCS(=O)(=O)c1ccc(CC(=O)Nc2cc(Cl)c(-c3ccc(CC(C)C)c(C#N)c3)c(Cl)c2)cc1 [Example 16, N-(2,6-Dichloro-3′-cyano-4′-isobutyl-[1,1′-biphenyl]-4-yl)-2-(4-(ethylsulfonyl)phenyl)acetamide]
EC50 [1]: 10 to 50 nM
EC50 [2]: < 50 nM
activation at 2 µM [3]: > 50%

SMILES: CC(C)Cc1ccc(-c2c(Cl)cc(NC(=O)Cc3ccc(S(C)(=O)=O)cc3)cc2Cl)cc1C#N [Example 17, N-(2,6-Dichloro-3′-cyano-4′-isobutyl-[1,1′-biphenyl]-4-yl)-2-(4-(methylsulfonyl)phenyl)acetamide]
EC50 [1]: 10 to 50 nM
EC50 [2]: < 50 nM
activation at 2 µM [3]: > 50%

SMILES: CCS(=O)(=O)c1ccc(CC(=O)Nc2cc(Cl)c(-c3ccc(OC(C)C)c(C#N)c3)c(Cl)c2)cc1 [Example 32, N-(2,6-Dichloro-3′-cyano-4′-isopropoxy-[1,1′-biphenyl]-4-yl)-2-(4-(ethylsulfonyl)phenyl)acetamide]
EC50 [2]: < 50 nM

SMILES: CCC(C)Cc1ccc(-c2c(Cl)cc(NC(=O)Cc3ccc(S(=O)(=O)CC)cc3)cc2Cl)cc1C#N (centres unmarked) [Example 41, N-(2,6-Dichloro-3′-cyano-4′-(2-methylbutyl)-[1,1′-biphenyl]-4-yl)-2-(4-(ethylsulfonyl)phenyl)acetamide]
EC50 [2]: > 150 nM

Second part, led by results:

EC50 [2]: 50 to 150 nM
SMILES: CCS(=O)(=O)c1ccc(CC(=O)Nc2cc(Cl)c(-c3ccc(CC(C)C)c(C#N)c3)c(Cl)c2)nc1 [Example 19, N-(2,6-Dichloro-3′-cyano-4′-isobutyl-[1,1′-biphenyl]-4-yl)-2-(5-(ethylsulfonyl)pyridin-2-yl)acetamide]
activation at 2 µM [3]: 20 to 50%

EC50 [1]: 10 to 50 nM
EC50 [2]: > 150 nM
SMILES: CC(C)Cc1ccc(-c2c(Cl)cc(NC(=O)Cc3ccc(S(C)(=O)=O)cn3)cc2Cl)cc1C#N [Example 20, N-(2,6-dichloro-3′-cyano-4′-isobutyl-[1,1′-biphenyl]-4-yl)-2-(5-(methylsulfonyl)pyridin-2-yl)acetamide]
activation at 2 µM [3]: > 50%

EC50 [1]: < 10 nM
EC50 [2]: < 50 nM
SMILES: CC(C)Cc1ccc(-c2c(Cl)cc(NC(=O)Cc3ccc(S(N)(=O)=O)cc3)cc2Cl)cc1C#N [Example 21, N-(2,6-Dichloro-3′-cyano-4′-isobutyl-[1,1′-biphenyl]-4-yl)-2-(4-sulfamoylphenyl)acetamide]
activation at 2 µM [3]: 20 to 50%

EC50 [1]: 10 to 50 nM
EC50 [2]: > 150 nM
SMILES: CCN(C)Cc1ccc(-c2c(Cl)cc(NC(=O)Cc3ccc(S(=O)(=O)CC)cc3)cc2Cl)cc1C#N [Example 36, N-(2,6-Dichloro-3′-cyano-4′-((ethyl(methyl)amino)methyl)-[1,1′-biphenyl]-4-yl)-2-(4-(ethylsulfonyl)phenyl)acetamide]
activation at 2 µM [3]: > 50%

EC50 [2]: 50 to 150 nM
SMILES: CCS(=O)(=O)c1ccc(CC(=O)Nc2cc(Cl)c(-c3ccc(CC4CCC4)c(C#N)c3)c(Cl)c2)cc1 [Example 43, (N-(2,6-Dichloro-3′-cyano-4′-(cyclobutylmethyl)-[1,1′-biphenyl]-4-yl)-2-(4-(ethylsulfonyl)phenyl)acetamide)]
